The target of data set [1] is T1, Estrogen receptor (Homo sapiens, UniProt P03372).
T1 sequence (P03372 whole entry): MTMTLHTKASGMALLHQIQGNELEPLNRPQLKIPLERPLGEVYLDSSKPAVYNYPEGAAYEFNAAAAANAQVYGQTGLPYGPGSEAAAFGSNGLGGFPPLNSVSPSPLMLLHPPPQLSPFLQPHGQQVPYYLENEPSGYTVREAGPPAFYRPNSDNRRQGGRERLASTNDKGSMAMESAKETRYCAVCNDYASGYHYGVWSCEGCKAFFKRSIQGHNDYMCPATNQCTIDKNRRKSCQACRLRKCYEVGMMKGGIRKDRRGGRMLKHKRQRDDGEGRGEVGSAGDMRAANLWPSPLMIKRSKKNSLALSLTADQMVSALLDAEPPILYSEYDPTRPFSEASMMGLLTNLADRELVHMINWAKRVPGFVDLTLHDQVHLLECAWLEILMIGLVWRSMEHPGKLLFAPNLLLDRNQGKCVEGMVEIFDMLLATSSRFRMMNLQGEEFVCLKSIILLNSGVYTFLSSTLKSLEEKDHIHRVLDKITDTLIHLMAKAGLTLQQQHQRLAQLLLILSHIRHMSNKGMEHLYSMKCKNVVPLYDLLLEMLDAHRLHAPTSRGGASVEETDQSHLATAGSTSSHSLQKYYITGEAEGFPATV
In words: Induction of ERalpha degradation in human MCF7 cells after 4 hrs by FITC/Hoechst staining based immunofluorescence imaging analysis. In kind it is cell-based.

In data set [2] the test system is MCF7. In words: Antiproliferative activity against human MCF7 cells assessed as reduction in cell viability after 72 hrs by Celltiter-Glo assay. It is filed as functional, cell-based. The note with it: MCF7, 72 h. In general terms: In ATP-based viability assays light output follows the ATP content of the culture.
Data set [3] deals with MCF7. The data set is described as follows: Antitumor activity against human MCF7 cells expressing wild-type ER xenografted in po dosed CRL:NU-Foxn1 mouse administered qd for 28 days in presence of 17-beta-estradiol pellets and measured twice per week by caliper method. In kind it is functional, organism-based. (In general: Xenograft models place foreign cells or tissue in a host animal.)

Data set [4] can be described thus: Clearance in dog. The following applies: in vivo. In kind it is ADME, Canis lupus familiaris.
Data set [5] can be described thus: Clearance in cynomolgus monkey. In kind it is ADME, Macaca fascicularis. The note with it: in vivo.
In data set [6] the test system is MCF7. In words: Antitumor activity against human MCF7 cells harboring ER Y537S mutant xenografted in CRL:NU-Foxn1 mouse assessed as tumor regression at 1 to 30 mg/kg, po qd for 21 days in presence of 17-beta estradiol pellets and measured twice per week by caliper method. It is filed as functional, organism-based.
Data set [7] concerns MCF7. In words: Antitumor activity against human MCF7 cells harboring ER Y537S mutant xenografted in po dosed CRL:NU-Foxn1 mouse assessed as tumor regression administered qd for 21 days in presence of 17-beta estradiol pellets and measured twice per week by caliper method. It is filed as functional, organism-based.
The target of data set [8] is T2, Estrogen receptor (Rattus norvegicus) (UniProt P06211).
T2 sequence (whole entry): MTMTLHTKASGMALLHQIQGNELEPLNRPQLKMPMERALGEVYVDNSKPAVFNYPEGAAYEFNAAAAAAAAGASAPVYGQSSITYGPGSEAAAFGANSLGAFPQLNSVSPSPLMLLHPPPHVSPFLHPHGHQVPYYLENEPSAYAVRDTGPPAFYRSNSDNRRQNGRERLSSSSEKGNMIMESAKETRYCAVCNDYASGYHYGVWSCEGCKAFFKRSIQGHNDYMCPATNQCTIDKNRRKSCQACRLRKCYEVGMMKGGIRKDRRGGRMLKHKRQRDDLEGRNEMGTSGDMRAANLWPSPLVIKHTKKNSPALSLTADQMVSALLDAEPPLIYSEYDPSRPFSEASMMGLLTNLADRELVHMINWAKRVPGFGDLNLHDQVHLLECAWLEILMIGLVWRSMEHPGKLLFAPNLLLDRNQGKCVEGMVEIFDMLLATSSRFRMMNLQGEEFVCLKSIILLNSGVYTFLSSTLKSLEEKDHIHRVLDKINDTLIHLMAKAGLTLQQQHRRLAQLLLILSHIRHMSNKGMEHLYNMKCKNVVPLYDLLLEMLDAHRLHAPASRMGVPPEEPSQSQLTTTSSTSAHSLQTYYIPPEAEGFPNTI
The data set is described as follows: In vivo antagonist activity at ERalpha in CRL:CD(SD) rat assessed as inhibition of estradiol-induced increase in uterine wet weight at 10 mg/kg, po administered as MCT suspension for 3 days and measured at 4 hrs post last dose on day 4. It is filed as functional, organism-based.

Data set [9] can be described thus: Oral bioavailability in cynomolgus monkey. The note with it: in vivo.
A short description of data set [10]: Clearance in rat. In kind it is ADME. The following applies: in vivo.
The subject of the next data set is T47D. The data set is described as follows: Antiproliferative activity against human T47D cells assessed as reduction in cell viability. It is filed as functional, cell-based.
Data set [11] can be described thus: Oral bioavailability in rat. The note with it: in vivo.
Data set [12] can be described thus: Oral bioavailability in dog. The following applies: in vivo.
The target in data set [13] is T1, Estrogen receptor. The data set is described as follows: Agonist activity at ERalpha in human Ishikawa cells after 72 hrs by alkaline phosphatase assay. In kind it is cell-based.

The values below come from ChEMBL document CHEMBL4616717, “Discovery of GNE-149 as a Full Antagonist and Efficient Degrader of Estrogen Receptor alpha for ER+ Breast Cancer” (ACS Med Chem Lett, 2020).

Structures are written as SMILES. The source made the active and inactive calls. The rule behind the calls is not given here.

With `C=CCN1CC(Oc2cc(F)c([C@@H]3c4[nH]c5ccccc5c4C[C@@H](C)N3CC(C)(C)F)c(F)c2)C1`, the 50% inhibitory concentration (IC50) (commonly the concentration that inhibits the measured activity by half) on Estrogen receptor [1] stood at 0.15 nM; in the data set on MCF7 [2], 0.84 nM.
On to `C[C@@H]1Cc2c([nH]c3ccccc23)[C@@H](c2c(F)cc(OC3CN(CCCF)C3)cc2F)N1CC(C)(C)F`, for which the Activity result was “Dose-dependent effect” in the data set with MCF7 [3], “Dose-dependent effect” in the data set with MCF7 [7] and “Not Active” on Estrogen receptor [13]. Besides, the clearance (in general, the rate of elimination divided by the concentration) worked out at 0.48 L/h/kg in [4], 0.78 L/h/kg in data set [5] and 1.14 L/h/kg in data set [10]. The result with MCF7 [6] was Active. In addition, the inhibition result in data set [8] is “Active”. The bioavailability – broadly, the share of a dose that reaches the circulation, judged against a reference dose that is usually intravenous – in data set [9] was 28%; in [11] it was 31%; in data set [12], 49%. In addition, the IC50 in the data set on T47D was found to be 0.69 nM; in the data set on MCF7 [2] it was 0.66 nM.
With `CC1=C(c2cccc(O)c2)[C@H](c2ccc(OCCN3CC(CF)C3)cc2)Oc2ccc(O)cc21`, the results for the clearance in data set [4], in data set [5] and in data set [10] were 1.44 L/h/kg, 1.02 L/h/kg and 4.86 L/h/kg, respectively. The bioavailability turned out to be 5% in data set [9] and 23% in data set [12]. The results for the IC50 with T47D and with MCF7 [2] were 0.29 nM and 0.3 nM, respectively. On Estrogen receptor [13], the Activity entry is recorded as “Not Active”.
Take `C[C@@H]1Cc2c([nH]c3ccccc23)[C@@H](c2c(F)cc(OC[C@H](C)N3CC[C@@H](CF)C3)cc2F)N1CC(C)(C)F`: the IC50 in the data set on MCF7 [2] came out at 1.7 nM.
For `C[C@@H]1Cc2c([nH]c3ccccc23)[C@@H](c2c(F)cc(OC3CN(CCCCl)C3)cc2F)N1CC(C)(C)F`, the half-inhibitory concentration (IC50) in the data set on MCF7 [2] worked out at 3 nM.
For `C[C@@H]1Cc2c([nH]c3ccccc23)[C@@H](c2c(F)cc(OC3CN(CCCCF)C3)cc2F)N1CC(C)(C)F`, the half-inhibitory concentration (IC50) at Estrogen receptor [1] was found to be 0.39 nM; in the data set on MCF7 [2], 8.5 nM.
Regarding `C[C@@H]1Cc2c([nH]c3ccccc23)[C@@H](c2c(F)cc(OCCN3CC(CF)C3)cc2F)N1CC(C)(C)F`, in the data set on MCF7 [2], the 50% inhibitory concentration (IC50) was 1.6 nM.
As to `C#CCN1CC(Oc2cc(F)c([C@@H]3c4[nH]c5ccccc5c4C[C@@H](C)N3CC(C)(C)F)c(F)c2)C1`, the half-maximal inhibitory concentration (IC50) against Estrogen receptor [1] came to 0.083 nM; with MCF7 [2] it was 0.82 nM.
On to `CC/C(=C(/c1ccc(/C=C/C(=O)O)cc1)c1ccc2[nH]ncc2c1)c1ccc(F)cc1Cl` [BRILANESTRANT], for which the IC50 was 27 nM in the data set on T47D and 44 nM in the data set with MCF7 [2].
Regarding `C[C@@H]1Cc2c([nH]c3ccccc23)[C@@H](c2c(F)cc(OCCN3CC[C@@H](CF)C3)cc2F)N1CC(C)(C)F`, the IC50 in the data set with MCF7 [2] amounted to 1.5 nM.
With `C[C@@H]1Cc2c([nH]c3ccccc23)[C@@H](c2c(F)cc(OC3CN(CCF)C3)cc2F)N1CC(C)(C)F`, the IC50 on Estrogen receptor [1] was 0.18 nM; in the data set on MCF7 [2], 1.3 nM.
With `C[C@@H]1Cc2c([nH]c3ccccc23)[C@@H](c2c(F)cc(OC3CN(C[C@H]4C[C@H]4F)C3)cc2F)N1CC(C)(C)F`, the IC50 on Estrogen receptor [1] is 0.56 nM; in the data set on MCF7 [2] it was 1.8 nM.
Regarding `CC1CN(CCOc2cc(F)c([C@@H]3c4[nH]c5ccccc5c4C[C@@H](C)N3CC(C)(C)F)c(F)c2)C1`, the results for the concentration for half-maximal inhibition (IC50) on Estrogen receptor [1] and with MCF7 [2] were 0.19 nM and 0.9 nM, respectively.
As for `C[C@]12CC[C@@H]3c4ccc(O)cc4C[C@@H](CCCCCCCCC[S+]([O-])CCCC(F)(F)C(F)(F)F)[C@H]3[C@@H]1CC[C@@H]2O` (stereo not given in full) [FULVESTRANT], the figures for the concentration for half-maximal inhibition (IC50) in the data set on T47D and with MCF7 [2] were 3 nM and 2.6 nM, respectively. On Estrogen receptor [13], the Activity entry is “Not Active”.
Regarding `CCCN1CC(Oc2cc(F)c([C@@H]3c4[nH]c5ccccc5c4C[C@@H](C)N3CC(C)(C)F)c(F)c2)C1`, in the data set on MCF7 [2], the IC50 worked out at 1.5 nM.
Turning to `C[C@@H]1Cc2c([nH]c3ccccc23)[C@@H](c2c(F)cc(OCCN3CC(C(F)F)C3)cc2F)N1CC(C)(C)F`, in the data set with MCF7 [2], the half-maximal inhibitory concentration (IC50) came out at 2.3 nM.
Regarding `C[C@@H]1Cc2c([nH]c3ccccc23)[C@@H](c2c(F)cc(OC3CN(C[C@H]4C[C@@H]4F)C3)cc2F)N1CC(C)(C)F`, the IC50 on Estrogen receptor [1] came out at 0.55 nM; with MCF7 [2], 6.4 nM.
Taken in the same sequence, the figures for `C[C@@H]1Cc2c([nH]c3ccccc23)[C@@H](c2c(F)cc(OCCN3CC(F)(CF)C3)cc2F)N1CC(C)(C)F` were 0.38 nM and 2.7 nM.
Taken in the same sequence, the figures for `C[C@@H]1Cc2c([nH]c3ccccc23)[C@@H](c2c(F)cc(OC3CN(CC4(CF)CC4)C3)cc2F)N1CC(C)(C)F` were 0.52 nM and 5.6 nM.
